Patent US20060172945A1, “Human neutrophil alpha-defensin 4 inhibition of HIV-1” (priority 2005, published 2006)
Entries after “also recorded” stand apart in the source; their conditions may differ. No end group written: not given here.

System: HIV-1 isolates IIIB (X4), BaL (R5), B703 (X4), NSI03 (R5) in PBMC
Assay: Inhibition of HIV-1 replication in PBMC, HIV-1 p24 antigen-capture ELISA
Type: cell-based
Conditions: HIV-1 infected human PBMC in vitro, p24 at day 4; HNP4 compared with HNPs 1-3
Procedure: Inhibition of HIV-1 in vitro by α-defensins 1-3 was first reported by Nakashima et al, 1993 [11], which has been confirmed by several recent reports.
Cells infected with the HIV-1 virus were added to duplicate series of wells containing varying concentrations of test defensin in 200 ul complete culture medium, and fed after 48 hours with fresh defensin of appropriate quantities. Medium alone was used as the control. The level of HIV-1 replication was measured at day 4 after infection by HIV-1 p24 antigen-capture ELISA. Percent infection was determined as a function of HIV p24 released into the medium in sample wells versus in control wells.

In the case of “HNP4: Human neutrophil α-defensin 4, 33 amino acid residues; amino acid residues 64-96 of defensin 4 (VCSCRLVFCRRTELRVGNCLIGGVSFTYCCTRV; ends and bridges not checked; cysteine pairing not given here; UniProt P12838 64-96, looked up, fragment)”, the “Inhibition of HIV-1 (in words)” value is reported as “significantly more effective inhibitor than HNPs 1-3; also recorded: significantly and unexpectedly stronger”.
